Structures can show the parent of a compound that is named as a salt. Where two headings read alike, the source gives them in different places.
Experiments:
Experiment in all cases: MIC, microbroth dilution, standard strains
Type in all cases: cell-based
[1] = tested on: methicillin-resistant Staphylococcus aureus ATCC 33591
Method: (§1) The minimum inhibitory concentration (MIC) of the pleuromutilin derivative containing thiazole-pyridine benzyl quaternary ammonium salt side chain was tested with moxifloxacin as a positive control (purchased from Shanghai Macklin Biochemical Technology Co., Ltd.) using a microbroth dilution method.
(§2) Standard strains include gram-positive bacteria: Staphylococcus epidermidis ATCC 12228, Staphylococcus aureus ATCC 29213, ATCC 25923 and methicillin-resistant Staphylococcus aureus ATCC 33591; gram-negative bacteria: Salmonella ATCC 14028, Acinetobacter baumannii ATCC 19606, Escherichia coli ATCC 25922 and CMCC 44103, all the strains were purchased from the American Type Culture Collection.

[2] = tested on: Acinetobacter baumannii ATCC 19606
Method: as §1, §2

[3] = tested on: Staphylococcus epidermidis ATCC 12228
Method: as §1, §2

[4] = tested on: Staphylococcus aureus ATCC 25923
Method: as §1, §2

[5] = tested on: Staphylococcus aureus ATCC 29213
Method: as §1, §2

[6] = tested on: Escherichia coli CMCC 44103
Method: as §1, §2

[7] = tested on: Escherichia coli ATCC 25922
Method: as §1, §2

Salmonella ATCC 14028 = tested on: Salmonella ATCC 14028
Method: as §1, §2

[8] = ATCC33591, read-out: Minimum inhibitory concentration
[9] = ATCC19606, read-out: Minimum inhibitory concentration
[10] = ATCC12228, read-out: Minimum inhibitory concentration
[11] = ATCC25923, read-out: Minimum inhibitory concentration
[12] = ATCC29213, read-out: Minimum inhibitory concentration
[13] = CMCC44103, read-out: Minimum inhibitory concentration
[14] = ATCC25922, ATCC 25922, read-out: Minimum inhibitory concentration
[15] = ATCC33591, ATCC 33591, read-out: Minimum inhibitory concentration
[16] = ATCC14028, ATCC 14028, read-out: Minimum inhibitory concentration
[17] = ATCC19606, ATCC 19606, read-out: Minimum inhibitory concentration
[18] = ATCC12228, ATCC 12228, read-out: Minimum inhibitory concentration
[19] = ATCC25923, ATCC 25923, read-out: Minimum inhibitory concentration
[20] = ATCC29213, ATCC 29213, read-out: Minimum inhibitory concentration
[21] = CMCC44103, CMCC 44103, read-out: Minimum inhibitory concentration

Row | SMILES | MIC [7, 14] | MIC [1, 15] | MIC (Salmonella ATCC 14028; [16]) | MIC [2, 17] | MIC [3, 18] | MIC [4, 19] | MIC [5, 20] | MIC [6, 21] | MIC [1, 8] | MIC [2, 9] | MIC [3, 10] | MIC [4, 11] | MIC [5, 12] | MIC [6, 13] | MIC ([7]; ATCC25922, read-out: Minimum inhibitory concentration) | MIC (Salmonella ATCC 14028; ATCC14028, read-out: Minimum inhibitory concentration)
1 | C=C[C@]1(C)C[C@@H](OC(=O)CSc2nc(-c3cc[n+](Cc4ccccc4)cc3)cs2)[C@]2(C)[C@H](C)CC[C@]3(CCC(=O)[C@H]32)[C@@H](C)[C@@H]1O [Compound 1, 1-Benzyl-4-(2-(((8-hydroxy-4,7,9,12-tetramethyl-3-oxy-7-vinyldecahydro-4,9a-propanecyclopenta[8]cyclen-5-yl)oxy)-2-oxoethyl)thiothiazol-4-yl)pyridyl bromide salt] | – | – | – | – | – | – | – | – | 1 µg/mL | 4 µg/mL | 2 µg/mL | 0.5 µg/mL | 0.125 µg/mL | 0.25 µg/mL | – | –
2 | C=C[C@]1(C)C[C@@H](OC(=O)CSc2nc(-c3cc[n+](Cc4ccc(C#N)cc4)cc3)cs2)[C@]2(C)[C@H](C)CC[C@]3(CCC(=O)[C@H]32)[C@@H](C)[C@@H]1O [Compound 8, 1-(4-(cyano)benzyl)-4-(2-(8-hydroxy-4,7,9,12-tetramethyl-3-oxo-7-vinyldecahydro-4,9a-propancyclopent[8]cyclen-5-yl)oxy)-2-oxoethyl)thiazol-4-yl)pyridyl bromide salt] | – | – | – | – | – | – | – | – | 64 µg/mL | 32 µg/mL | 8 µg/mL | 1 µg/mL | 0.125 µg/mL | 8 µg/mL | 2 µg/mL | 32 µg/mL
3 | C=C[C@]1(C)C[C@@H](OC(=O)CSc2nc(-c3cc[n+](Cc4ccc(Br)cc4)cc3)cs2)[C@]2(C)[C@H](C)CC[C@]3(CCC(=O)[C@H]32)[C@@H](C)[C@@H]1O [Compound 11, 1-(4-bromobenzyl)-4-(2-(8-hydroxy-4,7,9,12-tetramethyl-3-oxo-7-vinyldecahydro-4,9a-propancyclopent[8]cyclen-5-yl)oxy)-2-oxoethyl)thiazol-4-yl)pyridyl bromide salt] | 2 µg/mL | 2 µg/mL | 4 µg/mL | 2 µg/mL | 2 µg/mL | 1 µg/mL | 0.5 µg/mL | 0.5 µg/mL | – | – | – | – | – | – | – | –
4 | C=C[C@]1(C)C[C@@H](OC(=O)CSc2nc(-c3cc[n+](Cc4cc(C)cc(C)c4)cc3)cs2)[C@]2(C)[C@H](C)CC[C@]3(CCC(=O)[C@H]32)[C@@H](C)[C@@H]1O [Compound 13, 1-(3,5-dimethylbenzyl)-4-(2-(8-hydroxy-4,7,9,12-tetramethyl-3-oxo-7-vinyldecahydro-4,9a-propancyclopent[8]cyclen-5-yl)oxy)-2-oxoethyl)thiazol-4-yl)pyridyl bromide salt] | 32 µg/mL | 64 µg/mL | 16 µg/mL | 8 µg/mL | 128 µg/mL | 64 µg/mL | 128 µg/mL | 32 µg/mL | – | – | – | – | – | – | – | –
5 | C=C[C@]1(C)C[C@@H](OC(=O)CSc2nc(-c3cc[n+](Cc4cc(OC)cc(OC)c4)cc3)cs2)[C@]2(C)[C@H](C)CC[C@]3(CCC(=O)[C@H]32)[C@@H](C)[C@@H]1O [Compound 14, 1-(3,5-dimethoxybenzyl)-4-(2-(8-hydroxy-4,7,9,12-tetramethyl-3-oxo-7-vinyldecahydro-4,9a-propancyclopent[8]cyclen-5-yl)oxy)-2-oxoethyl)thiazol-4-yl)pyridyl bromide salt] | 32 µg/mL | 64 µg/mL | 16 µg/mL | 8 µg/mL | 64 µg/mL | 64 µg/mL | 128 µg/mL | 8 µg/mL | – | – | – | – | – | – | – | –

Continued by falling MIC [7, 14], values first:

Row | MIC [7, 14] | MIC [1, 15] | MIC (Salmonella ATCC 14028; [16]) | MIC [2, 17] | MIC [3, 18] | MIC [4, 19] | MIC [5, 20] | MIC [6, 21] | SMILES | MIC [1, 8] | MIC [2, 9] | MIC [3, 10] | MIC [4, 11] | MIC [5, 12] | MIC [6, 13] | MIC ([7]; ATCC25922, read-out: Minimum inhibitory concentration) | MIC (Salmonella ATCC 14028; ATCC14028, read-out: Minimum inhibitory concentration)
6 | 2 µg/mL | 2 µg/mL | 4 µg/mL | 8 µg/mL | 2 µg/mL | 32 µg/mL | 2 µg/mL | 32 µg/mL | C=C[C@]1(C)C[C@@H](OC(=O)CSc2nc(-c3cc[n+](Cc4ccc(OC(F)(F)F)cc4)cc3)cs2)[C@]2(C)[C@H](C)CC[C@]3(CCC(=O)[C@H]32)[C@@H](C)[C@@H]1O [Compound 5, 1-(4-(trifluoromethoxy)benzyl)-4-(2-(8-hydroxy-4,7,9,12-tetramethyl-3-oxo-7-vinyldecahydro-4,9a-propancyclopent[8]cyclen-5-yl)oxy)-2-oxoethyl)thiazol-4-yl)pyridyl bromide salt] | – | – | – | – | – | – | – | –
7 | 2 µg/mL | 1 µg/mL | 2 µg/mL | 2 µg/mL | 2 µg/mL | 0.5 µg/mL | 0.25 µg/mL | 2 µg/mL | C=C[C@]1(C)C[C@@H](OC(=O)CSc2nc(-c3cc[n+](Cc4ccc(C(C)(C)C)cc4)cc3)cs2)[C@]2(C)[C@H](C)CC[C@]3(CCC(=O)[C@H]32)[C@@H](C)[C@@H]1O [Compound 6, 1-(4-(tert-butyl)benzyl)-4-(2-(8-hydroxy-4,7,9,12-tetramethyl-3-oxo-7-vinyldecahydro-4,9a-propancyclopent[8]cyclen-5-yl)oxy)-2-oxoethyl)thiazol-4-yl)pyridyl bromide salt] | – | – | – | – | – | – | – | –
8 | 2 µg/mL | 2 µg/mL | 1 µg/mL | 16 µg/mL | 2 µg/mL | 1 µg/mL | 1 µg/mL | 1 µg/mL | C=C[C@]1(C)C[C@@H](OC(=O)CSc2nc(-c3cc[n+](Cc4ccc(F)cc4)cc3)cs2)[C@]2(C)[C@H](C)CC[C@]3(CCC(=O)[C@H]32)[C@@H](C)[C@@H]1O [Compound 9, 1-(4-fluorobenzyl)-4-(2-(8-hydroxy-4,7,9,12-tetramethyl-3-oxo-7-vinyldecahydro-4,9a-propancyclopent[8]cyclen-5-yl)oxy)-2-oxoethyl)thiazol-4-yl)pyridyl bromide salt] | – | – | – | – | – | – | – | –
9 | 1 µg/mL | 2 µg/mL | 2 µg/mL | 2 µg/mL | 1 µg/mL | 1 µg/mL | 0.25 µg/mL | 2 µg/mL | C=C[C@]1(C)C[C@@H](OC(=O)CSc2nc(-c3cc[n+](Cc4ccc(C(F)(F)F)cc4)cc3)cs2)[C@]2(C)[C@H](C)CC[C@]3(CCC(=O)[C@H]32)[C@@H](C)[C@@H]1O [Compound 3, 1-(4-(trifluoromethyl)benzyl)-4-(2-(8-hydroxy-4,7,9,12-tetramethyl-3-oxo-7-vinyldecahydro-4,9a-propancyclopent[8]cyclen-5-yl)oxy)-2-oxoethyl)thiazol-4-yl)pyridyl bromide salt] | – | – | – | – | – | – | – | –
10 | 1 µg/mL | 2 µg/mL | 2 µg/mL | 2 µg/mL | 2 µg/mL | 1 µg/mL | 0.5 µg/mL | 1 µg/mL | C=C[C@]1(C)C[C@@H](OC(=O)CSc2nc(-c3cc[n+](Cc4ccc(-c5ccccc5)cc4)cc3)cs2)[C@]2(C)[C@H](C)CC[C@]3(CCC(=O)[C@H]32)[C@@H](C)[C@@H]1O [Compound 12, 1-([1,1′-biphenyl]-4-ylmethyl)-4-(2-(8-hydroxy-4,7,9,12-tetramethyl-3-oxo-7-vinyldecahydro-4,9a-propancyclopent[8]cyclen-5-yl)oxy)-2-oxoethyl)thiazol-4-yl)pyridyl bromide salt] | – | – | – | – | – | – | – | –
11 | 0.5 µg/mL | 2 µg/mL | 2 µg/mL | 2 µg/mL | 2 µg/mL | 2 µg/mL | 0.125 µg/mL | 1 µg/mL | C=C[C@]1(C)C[C@@H](OC(=O)CSc2nc(-c3cc[n+](Cc4ccc(Cl)cc4)cc3)cs2)[C@]2(C)[C@H](C)CC[C@]3(CCC(=O)[C@H]32)[C@@H](C)[C@@H]1O [Compound 10, 1-(4-chlorobenzyl)-4-(2-(8-hydroxy-4,7,9,12-tetramethyl-3-oxo-7-vinyldecahydro-4,9a-propancyclopent[8]cyclen-5-yl)oxy)-2-oxoethyl)thiazol-4-yl)pyridyl bromide salt] | – | – | – | – | – | – | – | –
